Test results published in patent US11834401B2, “Treating and preventing diseases by modulating cell mechanics” (THE JOHNS HOPKINS UNIVERSITY, priority 2013, dated 2023).

What was measured:
[1] = system: NLS-tdTomato expressing Dictyostelium cells; conditions: for CIMPAQ hit category, kinase inhibitor collection / CIMPAQ hit category, ion channel collection: BIOMOL pilot screen; for CIMPAQ hit category, kinase inhibitor collection: 84 protein kinase inhibitors; for CIMPAQ hit category, ion channel collection: 70 ion channel inhibitors
Method: NLS-tdTomato expressing Dictyostelium cells were challenged with […] compounds from the ChemBridge Divert-SET library and imaged over three days. Raw data was segmented by CIMPAQ, a designed analytical platform, which rank ordered hits based on their cytokinesis or mitotic inhibitory activity, or lethality. Hits were confirmed through a dose-dependent secondary screening.
Ax3::NLS-tdTomato cells were plated on 384-well COP plates with a MicroFloSelect microplate dispenser (BioTek, Winooski, Vt.) at volumes of 80 μl with a cell concentration of 1000 cells/ml for the 24- and 48-hr time points and at the same volume with a cell concentration of 220 cells/ml for the 72-hr time point. Each plate contained four rows of untreated cells with 0.2% DMSO. For the remaining wells, […] of each small molecule maintained at the Johns Hopkins ChemCORE facility, was added, with a final DMSO concentration of 0.2%. Almost half of the ChemBridge Divert-SET library, which is a 50,000 compound chemical diversity library, was screened over a three-day period on a Becton Dickinson Pathway 855 Bioimager System using a 20× objective (NA 0.75). Each image consisted of a montage of four images collected around the center of the well, resulting in a total size of 1344×1024 pixels per image.
Secondary chemical screening was carried out in quadruplicate, with identical culturing conditions as to the primary screen. 14 mM stocks of each compounds dissolved in 100% DMSO were diluted to the following final concentrations: […], 3.5 nM, 35 nM, 350 nM, 3.5 μM, and 35 μM.
Raw image files from both the primary and secondary screening were processed through CIMPAQ (FIGS. 9E and 9F). The single wavelength fluorescence images were converted from 16-bit format to 8-bit format. The MATLAB Image Processing Toolbox was utilized to segment the images in order to identify the nuclei and cytoplasm. The number of nuclei within each segmented cell was quantified to produce a histogram of nuclei per cell for each image (FIG. 9G). All segmented cells that were coincident with the image edge were disregarded.
Image analysis using CIMPAQ: From the histogram of nuclei per cell count, the ratio of the number of multinucleate cells to the number of mononucleate cells and the ratio of the number of binucleate cells to the number of mononucleate cells were computed. Multinucleate cells are defined as cells that contain >2 nuclei. The distribution of both ratios across multiple wells were simultaneously visualized using a scatter plot, with the ratio of multinucleate cells to mononucleate cells plotted on the x-axis and the ratio of binucleate cells to mononucleate cells plotted on the y-axis (FIGS. 9H and 9I). Other information such as the average number of nuclei per cell, the mean nuclear area, and the normalized histogram with respect to total cell number were also computed.
Hit identification using CIMPAQ: Compounds that generate an increase in the number of multinucleate (>2 nuclei/cell) cells are considered cytokinesis inhibitors. Because nearly all cultured cells, including Dictyostelium, have a low background (typically <5% for WT) of non-mononucleate cells, CIMPAQ spreads the data for each sample by determining the ratio (bi:mono) of binucleate (2 nuclei/cell) to mononucleate cells and the ratio (multi:mono) of multinucleate (>2 nuclei/cell) to mononucleate cells. These two ratios then define a set of Cartesian coordinates, describing the effect of each compound on a given cell-line. The coordinates for each compound are plotted on a two-dimensional graph. CIMPAQ fits the control data to a two-dimensional Gaussian distribution (FIG. 9H) and determines the contour lines for two standard deviations (2SD), 3SD, etc. from the control mean (FIG. 9I).
Hit compounds are rank-ordered based on how many SDs away they are from the untreated wells.

[2] = target: EGF receptor tyrosine kinase (Homo sapiens, UniProt P00533); conditions: cited from earlier work
EGF receptor tyrosine kinase, sequence (P00533 25-1210): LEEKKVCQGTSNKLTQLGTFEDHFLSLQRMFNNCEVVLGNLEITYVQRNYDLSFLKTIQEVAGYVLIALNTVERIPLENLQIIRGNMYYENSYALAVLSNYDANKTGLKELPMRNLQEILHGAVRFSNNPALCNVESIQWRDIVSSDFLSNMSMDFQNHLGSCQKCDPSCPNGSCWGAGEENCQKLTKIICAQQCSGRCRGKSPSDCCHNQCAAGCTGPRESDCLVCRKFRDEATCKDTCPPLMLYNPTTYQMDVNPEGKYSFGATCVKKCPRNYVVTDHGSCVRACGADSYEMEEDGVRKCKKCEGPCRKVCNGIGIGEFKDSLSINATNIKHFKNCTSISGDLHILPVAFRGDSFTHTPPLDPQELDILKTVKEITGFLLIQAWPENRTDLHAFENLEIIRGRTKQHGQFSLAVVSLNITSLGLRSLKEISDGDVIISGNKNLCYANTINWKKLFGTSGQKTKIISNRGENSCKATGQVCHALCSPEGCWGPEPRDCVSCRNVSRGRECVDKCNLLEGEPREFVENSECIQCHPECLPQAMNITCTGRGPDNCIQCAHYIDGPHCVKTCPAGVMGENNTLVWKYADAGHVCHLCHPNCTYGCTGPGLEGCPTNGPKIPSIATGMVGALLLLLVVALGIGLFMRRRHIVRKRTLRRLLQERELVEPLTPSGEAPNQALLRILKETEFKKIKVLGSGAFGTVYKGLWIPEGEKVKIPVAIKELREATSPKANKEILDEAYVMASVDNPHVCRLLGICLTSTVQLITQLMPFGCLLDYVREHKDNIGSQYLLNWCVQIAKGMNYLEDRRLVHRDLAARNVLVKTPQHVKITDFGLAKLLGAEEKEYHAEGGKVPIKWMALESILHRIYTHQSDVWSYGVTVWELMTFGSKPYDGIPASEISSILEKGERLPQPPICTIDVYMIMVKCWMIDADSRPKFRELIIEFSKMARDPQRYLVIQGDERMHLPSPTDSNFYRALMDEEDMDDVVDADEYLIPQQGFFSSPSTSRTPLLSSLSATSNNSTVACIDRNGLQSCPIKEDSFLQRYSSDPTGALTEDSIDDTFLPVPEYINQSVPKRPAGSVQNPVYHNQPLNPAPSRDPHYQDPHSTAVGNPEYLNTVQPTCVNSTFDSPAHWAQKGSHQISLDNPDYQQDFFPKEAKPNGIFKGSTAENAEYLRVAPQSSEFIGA

Dictyostelium cells = experiment: Micropipette aspiration cortical tension, Dictyostelium; format: cell-based, Dictyostelium discoideum; conditions: acute treatment; 700 μM printed
Method: (§1) Micropipette aspiration was used for cortical tension and creep response measurements. Confocal imaging was performed on a Zeiss 510 Meta with a 63× (numerical aperture [NA] 1.4) objective (Carl Zeiss, Jena, Germany). Epifluorescence and TIRF imaging was performed in a 22° C. temperature controlled room with an Olympus IX81 microscope using a 40× (NA 1.3) or 60× (NA 1.49) objective and a 1.4× optovar (Olympus, Center Valley, Pa.), as previously described. Image analysis was performed with ImageJ (rsb.info.nih.gov/ij).
The instrumental and experimental setups have been previously described (Effler J C, et al., 2006; Kee Y-S, et al., 2013). Micropipette aspiration assays were all carried out in growth media with 0.1% DMSO. For cortical tension measurements of Dictyostelium cells, pressure was applied to the cell cortex with a micropipette (2-3 m radius, Rp) to the equilibrium pressure (ΔP) where the length of the cell inside the pipette (Lp) was equal to Rp. The effective cortical tension (Teff) was calculated by applying the Young-Laplace equation: ΔP=2Teff(1/Rp-1/Rc), where Rc is the radius of the cell and ΔP is the equilibrium pressure when Lp=Rp (Derganc J, et al., 2000; Octtaviani E, et al., 2006). For creep tests on mammalian strains, a constant aspiration stress was applied over 60 s. The micropipette radius was 3.5-4.5 m. For quantification, the Lp/Rp ratio values was measured every two seconds and plotted as a function of time. A10.7 and HEK293 cells could only be aspirated at a low pressure range (0.15 nN/μm^2), while HPDE, ASPC-1, and HL-60 cells could be aspirated at higher pressure ranges (0.25 nN/μm^2) because they were stiffer.

[3] = Degradation/stability of carbamate-7 in solvent (TLC, HPLC); format: physicochemical; conditions: standing in methanol
Method: Upon standing in methanol, the product obtained above degraded within 2.5 hr, as determined by TLC analysis. Degradation appeared more rapid in DMSO, the solvent used to generate stock solutions for biological evaluation. Thus, carbamate-7 obtained either by chemical synthesis or commercially from ChemBridge was dissolved in DMSO (1 mg/mL), and a time course to study its degradation was initiated immediately upon solvation. To stop the degradation reaction such that the product distribution could be captured at early time points, aliquots (40 μL) were rapidly frozen into Eppendorf tubes incubating on dry ice. HPLC analysis on a Beckman Gold Nouveau HPLC System was performed on each sample immediately upon thawing. Carbamate-7 (5180622) degradation products were eluted at 3 mL/min from a Grace Alltima C18 column (length=53 mm, ID=7 mm, particle size=3 μM) over a linear gradient (5:95 acetonitrile/100 mM NH4OAc (pH 6.8) to 100% 100 mM NH4OAc (pH 6.8) over 15 min).
Comparison of the urea product to authentic N,N′-Bis(3,4-dichlorophenyl) urea was performed using a linear gradient (5:95 acetonitrile/100 mM NH4OAc (pH 6.8) to 100% 100 mM NH4OAc (pH 6.8) over 5 min). […] Confirmation of the urea was further confirmed via characteristic fragmentation patterns determined using product ion (MS-MS) analysis monitoring in negative ion mode (FIG. 11C).

myosin II = target: T1, myosin II (Dictyostelium discoideum, UniProt P08799); experiment: Myosin II cortical localization by SIM, TIRF and confocal imaging; format: cell-based; conditions: 500 nM time course
T1 construct: expressed in transfected cells; host or cells: Dictyostelium discoideum myoII null cells rescued with GFP-myosin II
T1 sequence (P08799 whole entry): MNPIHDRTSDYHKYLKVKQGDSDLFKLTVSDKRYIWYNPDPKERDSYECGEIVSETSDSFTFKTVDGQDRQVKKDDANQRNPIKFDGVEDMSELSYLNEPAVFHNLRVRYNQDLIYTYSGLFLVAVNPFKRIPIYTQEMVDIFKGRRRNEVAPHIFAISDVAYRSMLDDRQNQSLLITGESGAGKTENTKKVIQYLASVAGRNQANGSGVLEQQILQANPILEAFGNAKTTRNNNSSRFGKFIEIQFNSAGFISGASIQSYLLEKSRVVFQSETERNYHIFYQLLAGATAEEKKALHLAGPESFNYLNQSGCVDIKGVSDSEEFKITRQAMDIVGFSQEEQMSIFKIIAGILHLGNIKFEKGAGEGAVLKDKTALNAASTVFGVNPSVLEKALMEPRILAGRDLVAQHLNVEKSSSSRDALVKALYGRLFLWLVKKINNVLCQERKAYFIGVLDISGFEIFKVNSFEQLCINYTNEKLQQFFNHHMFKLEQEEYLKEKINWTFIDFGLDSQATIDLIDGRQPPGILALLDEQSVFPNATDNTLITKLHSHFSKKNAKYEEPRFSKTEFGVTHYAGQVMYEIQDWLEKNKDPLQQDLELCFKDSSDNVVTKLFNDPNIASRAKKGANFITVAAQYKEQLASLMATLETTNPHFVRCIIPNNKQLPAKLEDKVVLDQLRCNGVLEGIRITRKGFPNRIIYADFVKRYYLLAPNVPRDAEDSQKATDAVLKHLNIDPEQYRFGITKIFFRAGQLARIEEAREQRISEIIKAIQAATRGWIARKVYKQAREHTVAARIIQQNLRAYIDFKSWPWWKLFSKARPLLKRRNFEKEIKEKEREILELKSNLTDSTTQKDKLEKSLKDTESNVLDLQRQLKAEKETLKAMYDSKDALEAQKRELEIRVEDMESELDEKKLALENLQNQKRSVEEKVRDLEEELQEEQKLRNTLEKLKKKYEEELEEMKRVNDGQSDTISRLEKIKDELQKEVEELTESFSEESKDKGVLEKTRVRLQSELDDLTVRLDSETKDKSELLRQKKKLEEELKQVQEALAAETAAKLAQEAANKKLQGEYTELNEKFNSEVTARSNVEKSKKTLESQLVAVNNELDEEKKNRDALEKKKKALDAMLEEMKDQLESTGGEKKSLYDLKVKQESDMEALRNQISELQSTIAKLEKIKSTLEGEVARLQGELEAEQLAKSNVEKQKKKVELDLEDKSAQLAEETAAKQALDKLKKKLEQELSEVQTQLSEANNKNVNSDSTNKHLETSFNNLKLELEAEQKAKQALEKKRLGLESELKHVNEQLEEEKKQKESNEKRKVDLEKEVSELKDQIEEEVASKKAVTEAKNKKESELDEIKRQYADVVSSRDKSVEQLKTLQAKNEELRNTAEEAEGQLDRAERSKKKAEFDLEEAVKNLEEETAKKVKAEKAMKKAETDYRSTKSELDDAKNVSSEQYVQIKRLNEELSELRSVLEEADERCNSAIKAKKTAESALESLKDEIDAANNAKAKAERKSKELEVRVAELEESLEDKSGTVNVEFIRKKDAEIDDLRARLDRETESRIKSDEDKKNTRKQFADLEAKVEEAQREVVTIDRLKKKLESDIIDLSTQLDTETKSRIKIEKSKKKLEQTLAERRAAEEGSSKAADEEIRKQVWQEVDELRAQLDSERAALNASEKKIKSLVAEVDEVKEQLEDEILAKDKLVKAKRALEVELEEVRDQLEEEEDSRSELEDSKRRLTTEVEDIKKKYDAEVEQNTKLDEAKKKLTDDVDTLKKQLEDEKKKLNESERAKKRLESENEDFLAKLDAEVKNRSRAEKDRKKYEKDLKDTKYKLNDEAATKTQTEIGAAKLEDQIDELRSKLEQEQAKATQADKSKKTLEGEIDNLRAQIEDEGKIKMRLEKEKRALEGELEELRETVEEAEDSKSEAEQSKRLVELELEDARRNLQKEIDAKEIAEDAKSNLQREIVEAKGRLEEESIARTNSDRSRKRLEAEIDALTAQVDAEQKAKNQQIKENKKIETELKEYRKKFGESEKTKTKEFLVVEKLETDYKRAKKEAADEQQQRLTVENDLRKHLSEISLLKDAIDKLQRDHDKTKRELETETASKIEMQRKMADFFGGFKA
Method: as §1
Imaging conditions during primary screen are described above. All other image analysis was performed as previously described (Kee Y S, et al., 2012). Cells were transferred from Petri dishes (with 0.1% DMSO incubation in growth media of 4 hrs) to imaging chambers and allowed to adhere for 20 min in growth media with 0.1% DMSO. After the cells adhered, the growth media was replaced with 2-(N-morpholino)ethanesulfonic acid (MES) starvation buffer (50 mM MES, pH 6.8, 2 mM MgCl2, 0.2 mM CaCl2) with 0.1% DMS. Confocal imaging was performed on aZeiss 510 Meta with a 63× (numerical aperture [NA] 1.4) objective (Carl Zeiss, Jena, Germany). Epifluorescence and TIR imaging was performed in a 22° C. temperature controlled room with an Olympus IX81 microscope using a 40× (NA 1.3) or 60× (NA […]) objective and a 1.4× optovar (Olympus, Center Valley, Pa.), as previously described. Image analysis was performed with ImageJ (rsb.info.nih.gov/ij). Many data sets were independently analyzed by multiple investigators.

CCCCCCCCCCCCCCCC(=O)OC(CC(=O)O)C[N+](C)(C)C.[Cl-] (racemic) [Palmitoyl-DL-carnitine Cl]
CIMPAQ hit category, kinase inhibitor collection [1]: Lethal at 10 μM

O=C(O)c1cc(NCc2cc(O)ccc2O)ccc1O [2-Hydroxy-5-(2,5-dihydroxybenzylamino) benzoic acid]
CIMPAQ hit category, kinase inhibitor collection [1]: Lethal at 10 μM

C/C(CCc1ccccc1)=N\Nc1ccc([N+](=O)[O-])cc1 [4-phenyl-2-butanone (4-nitrophenyl) hydrazone]
cell division ([1]; Dictyostelium Drug Discovery Platform (3DP)): inhibit cell division

N#CC(=Cc1ccc2[nH]ccc2c1)C(N)=C(C#N)C#N [AG-370]
CIMPAQ hit category, kinase inhibitor collection [1]: Lethal at 5 μM

CNc1ccc2oc(C[C@H]3O[C@@]4(CC[C@H]3C)O[C@H]([C@H](C)C(=O)c3ccc[nH]3)[C@H](C)C[C@H]4C)nc2c1C(=O)O [Antibiotic A-23187]
CIMPAQ hit category, ion channel collection [1]: Lethal at 5 μM

CC(C)COCC(CN(Cc1ccccc1)c1ccccc1)N1CCCC1 (stereo not drawn) [Bepridil]
CIMPAQ hit category, ion channel collection [1]: Lethal at 5 μM

COC(=O)/C=C/c1cc(O)ccc1O [Erbstatin analog]
known IC50 [2]: inhibitor; known IC50 (0.5 μg/ml

COc1cccc(-c2cc(=O)c3ccccc3o2)c1N [PD-98059]
CIMPAQ hit category, kinase inhibitor collection [1]: Lethal at 5 μM

Cc1ccc(-c2nn(C(C)(C)C)c3ncnc(N)c23)cc1 [PP1]
CIMPAQ hit category, kinase inhibitor collection [1]: Lethal at 5 μM

COc1ccc(CCCOC(Cn2ccnc2)c2ccc(OC)cc2)cc1 (stereo not drawn) [SKF-96365]
CIMPAQ hit category, ion channel collection [1]: Lethal at 5 μM

CC(C)(C)c1cc(C=C(C#N)C#N)cc(C(C)(C)C)c1O [Tyrphostin 9]
CIMPAQ hit category, kinase inhibitor collection [1]: Lethal at 5 μM

CC(=O)c1ccc(OC(=O)Nc2ccc(Cl)c(Cl)c2)cc1 [carbamate-7, 4-acetylphenyl-(3,4-dichlorophenyl) carbamate]
increase in cortical tension (Dictyostelium cells): 1.4 fold | time to degradation [3]: ≤ 2.5 h

COC(=O)Nc1nc2ccc(C(=O)c3cccs3)cc2[nH]1 [nocodazole]
identification as early mitotic inhibitor (average nuclear area greater than 28 pixels) [1]: reliably identified

O=C(Nc1ccc(Cl)c(Cl)c1)Nc1ccc(Cl)c(Cl)c1 [urea, N,N′-bis(3,4-dichlorophenyl)urea]
changes in myosin II cortical distribution (TIRF) (myosin II): Neither 3,4-DCA nor the urea result in changes in myosin II cortical distribution
